In patent US4925869A, “Therapeutic agents” (Imperial Chemical Industries PLC, priority 1986, dated 1990):

How the values were obtained:
Assay type in all cases: cell-based
[1] = target: T1, rat aortal strip (Rattus norvegicus, UniProt P34978); test: rat aortal strip model, antagonism of the TXA2 mimetic U46619 (test (a)); settings: agonist U46619, procedure (a), read-out: pA2 (converted)
T1 construct: the rat aortal strip model developed by Kennedy et alia; from tissue; host or cells: rat aorta strip
T1 sequence (P34978 1-341): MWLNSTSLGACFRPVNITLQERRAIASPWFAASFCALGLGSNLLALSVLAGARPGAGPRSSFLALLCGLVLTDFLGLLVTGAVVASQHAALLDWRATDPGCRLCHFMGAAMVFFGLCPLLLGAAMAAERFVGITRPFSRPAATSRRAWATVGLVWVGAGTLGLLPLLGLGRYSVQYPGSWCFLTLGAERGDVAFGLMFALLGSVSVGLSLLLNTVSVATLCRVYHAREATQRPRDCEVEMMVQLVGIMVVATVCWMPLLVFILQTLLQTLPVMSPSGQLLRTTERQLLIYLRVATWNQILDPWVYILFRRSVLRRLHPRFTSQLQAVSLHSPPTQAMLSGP
Source text: As stated earlier, the compounds of formula I are antagonists of one or more of the actions of TXA2, for example certain of its actions on blood platelets, the vasculature and/or the lung.
(a) The rabbit aortal strip model devised by Piper and Vane (Nature, 1969, 223, 29-35) or the rat aortal strip model developed by Kennedy et alia (Prostaglandins, 1982, 24, 667-689), using as agonist the TXA2 mimetic agent known as U46619 (described by R. L. Jones et alia. in "Chemistry, Biochemistry and Pharmacological Activity of Prostanoids" edited by S. M. Roberts and F. Scheinmann, at page 211, Pergamon Press, 1979);

[2] = target: T2, human, citrated platelet rich plasma (Homo sapiens, UniProt P21731); test: blood platelet aggregation test, U46619-induced aggregation of human citrated platelet rich plasma (test (b)); settings: U46619, procedure (b)
T2 construct: aggregating human, citrated platelet rich plasma; from tissue; host or cells: human citrated platelet rich plasma (native platelets)
T2 sequence (P21731 1-343): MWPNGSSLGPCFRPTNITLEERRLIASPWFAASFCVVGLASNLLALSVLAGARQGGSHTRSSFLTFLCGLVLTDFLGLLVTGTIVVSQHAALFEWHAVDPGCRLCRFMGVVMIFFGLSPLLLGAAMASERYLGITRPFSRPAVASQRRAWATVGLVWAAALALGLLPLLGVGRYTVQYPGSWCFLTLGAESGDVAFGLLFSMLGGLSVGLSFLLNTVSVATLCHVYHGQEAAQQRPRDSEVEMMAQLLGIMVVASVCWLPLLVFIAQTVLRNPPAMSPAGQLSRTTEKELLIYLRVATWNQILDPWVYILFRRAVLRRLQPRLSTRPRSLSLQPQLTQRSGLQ
Source text: (b) a blood platelet aggregation test based on that described by Born (Nature, 1962, 194, 927-929) and involving:
(i) aggregating human, citrated platelet rich plasma by addition of the TXA2 mimetic agent U46619 so that a dose-response curve is generated:
(ii) generating a dose-response curve for U46619 stimulated platelet aggregation in the presence of increasing amounts of test compound (generally in the range, 10^-5 M to 10^-10 M); and
(iii) calculating a KB value indicating potency of TXA2 antagonism for the test compound, averaged over several concentrations, from the calculated 50% response value for U46619 aggregation in the presence and absence of test compound: and (c) a bronchoconstriction test involving measuring the inhibition by test compound of the bronchoconstriction induced in the Konzett-Rossler, anaesthetised guinea-pig model (as modified by Collier and James, Brit. J. Pharmacol., 1967, 30, 283-307) by intravenous administration of the TXA2 mimetic agent, U46619 and involving: […]

[3] = tested on: human platelets; test: inhibition of arachidonic acid induced aggregation of human platelets
Source text: The beneficial effects of combining one of the novel TXA2 antagonists of formula I defined hereinabove with a TXA2 synthetase inhibitor may be illustrated in vitro, for example by evaluating their effects in inhibiting arachidonic acid induced aggregation of human platelets, using standard procedures well known in the art.

Compound | Kb [1] [nM] | Kb [2] [nM] | inhibition of arachidonic acid induced aggregation of human platelets ([3]; tested alone at 10^-9 M) | inhibition of arachidonic acid induced aggregation of human platelets ([3]; tested alone at 10^-4 M)
CC(C)(Oc1ccccc1)[C@H]1OC[C@@H](C/C=C\CCC(=O)O)[C@@H](c2ccccc2O)O1 (relative stereo) [Example 6, 4(Z) 6 ([2,4,5 cis]4-o-hydroxyphenyl-2-[1-methyl-1-phenoxyethyl] -1,3-dioxan-5-yl)hexenoic acid] | 0.195 | 17.5 | no significant inhibition | 
O=C(O)c1ccc(OCCn2ccnc2)cc1 [dazoxiben, reference compound] |  |  |  | no significant inhibition
